Values after ≈ are worked out from the molar mass of the structure shown.
Legend:
Escherichia coli [1] = assay: Antibacterial activity against Escherichia coli DH52 after 24 hrs by micro broth dilution method; assay type: functional; conditions: DH52, 24 h
Aspergillus flavus = assay: Antifungal activity against Aspergillus flavus after 24 hrs by two fold serial dilution based spectrophotometric analysis; assay type: functional
Bacillus subtilis = assay: Antibacterial activity against Bacillus subtilis after 24 hrs by micro broth dilution method; assay type: functional
Micrococcus luteus = assay: Antibacterial activity against Micrococcus luteus ATCC 4698 after 24 hrs by micro broth dilution method; assay type: functional; conditions: NCTC 2665, 24 h
Bacillus = assay: Antibacterial activity against Bacillus proteus ATCC 13315 after 24 hrs by micro broth dilution method; assay type: functional; conditions: ATCC 13315, 24 h
Candida albicans = assay: Antifungal activity against Candida albicans after 24 hrs by two fold serial dilution based spectrophotometric analysis; assay type: functional
Staphylococcus aureus [2] = assay: Antibacterial activity against methicillin-resistant Staphylococcus aureus N315 after 24 hrs by micro broth dilution method; assay type: functional; conditions: N315, 24 h
Staphylococcus aureus [3] = assay: Antibacterial activity against Staphylococcus aureus ATCC 25923 after 24 hrs by micro broth dilution method; assay type: functional; conditions: ATCC 25923, 24 h
Saccharomyces cerevisiae = assay: Antifungal activity against Beer yeast after 24 hrs by two fold serial dilution based spectrophotometric analysis; assay type: functional
Cyberlindnera jadinii = assay: Antifungal activity against Candida utilis after 24 hrs by two fold serial dilution based spectrophotometric analysis; assay type: functional; conditions: Williopsis jadinii
Escherichia coli [4] = assay: Antibacterial activity against Escherichia coli JM109 after 24 hrs by micro broth dilution method; assay type: functional; conditions: JM109, 24 h
Pichia norvegensis = assay: Antifungal activity against Candida mycoderma after 24 hrs by two fold serial dilution based spectrophotometric analysis; assay type: functional
Shigella dysenteriae = assay: Antibacterial activity against Shigella dysenteriae after 24 hrs by micro broth dilution method; assay type: functional
Salmonella typhi = assay: Antibacterial activity against Bacillus typhi after 24 hrs by micro broth dilution method; assay type: functional, Salmonella enterica subsp. enterica serovar Typhi; conditions: Salmonella enterica
Pseudomonas aeruginosa = assay: Antibacterial activity against Pseudomonas aeruginosa after 24 hrs by micro broth dilution method; assay type: functional

SMILES | MIC (Escherichia coli [1]) [µg/mL] | MIC (Aspergillus flavus) [µg/mL] | MIC (Bacillus subtilis) [µg/mL] | MIC (Micrococcus luteus) [µg/mL] | MIC (Bacillus) [µg/mL] | MIC (Candida albicans) [µg/mL] | MIC (Staphylococcus aureus [2]) [µg/mL] | MIC (Staphylococcus aureus [3]) [µg/mL] | MIC (Saccharomyces cerevisiae) [µg/mL] | MIC (Cyberlindnera jadinii) [µg/mL] | MIC (Escherichia coli [4]) [µg/mL] | MIC (Pichia norvegensis) [µg/mL] | MIC (Shigella dysenteriae) [µg/mL] | MIC (Salmonella typhi) [µg/mL] | MIC (Pseudomonas aeruginosa) [µg/mL]
CCOc1ccc2c(c1)sc1nc(-c3ccccc3)c(COCCCCCCCCCCBr)n12 | > 512 | 512 (≈ 942 µM) | > 512 | > 512 | > 512 | > 512 | > 512 | > 512 | > 512 | > 512 | > 512 | > 512 | > 512 | 256 (≈ 471 µM) | 16 (≈ 29.4 µM)
CCOc1ccc2c(c1)sc1nc(-c3ccccc3)c(COCCCCCBr)n12 | 128 (≈ 270 µM) | 64 (≈ 135 µM) | 128 (≈ 270 µM) | > 512 | 128 (≈ 270 µM) | 16 (≈ 33.8 µM) | > 512 | > 512 | > 512 | > 512 | > 512 | 128 (≈ 270 µM) | 128 (≈ 270 µM) | > 512 | > 512
c1ccc(-c2nc3sc4ccccc4n3c2COCCCn2cncn2)cc1 | 16 (≈ 41.1 µM) | 16 (≈ 41.1 µM) | 8 (≈ 20.5 µM) | 64 (≈ 164 µM) | 16 (≈ 41.1 µM) | 4 (≈ 10.3 µM) | 16 (≈ 41.1 µM) | 4 (≈ 10.3 µM) | 64 (≈ 164 µM) | 64 (≈ 164 µM) | 16 (≈ 41.1 µM) | 32 (≈ 82.2 µM) | 16 (≈ 41.1 µM) | 32 (≈ 82.2 µM) | 4 (≈ 10.3 µM)
CCOc1ccc2c(c1)sc1nc(-c3ccccc3)c(COCCCn3c([N+](=O)[O-])cnc3C)n12 | 16 (≈ 32.5 µM) | 64 (≈ 130 µM) | 16 (≈ 32.5 µM) | 128 (≈ 260 µM) | 32 (≈ 65.1 µM) | 32 (≈ 65.1 µM) | 16 (≈ 32.5 µM) | 32 (≈ 65.1 µM) | 8 (≈ 16.3 µM) | 256 (≈ 521 µM) | 32 (≈ 65.1 µM) | 64 (≈ 130 µM) | 8 (≈ 16.3 µM) | 8 (≈ 16.3 µM) | 32 (≈ 65.1 µM)
CCOc1ccc2c(c1)sc1nc(-c3ccccc3)c(COCCCCCCCCCCn3cnc([N+](=O)[O-])c3)n12 | 64 (≈ 111 µM) | 64 (≈ 111 µM) | 32 (≈ 55.6 µM) | 512 (≈ 889 µM) | 256 (≈ 445 µM) | 256 (≈ 445 µM) | 32 (≈ 55.6 µM) | 128 (≈ 222 µM) | 256 (≈ 445 µM) | 512 (≈ 889 µM) | 512 (≈ 889 µM) | 128 (≈ 222 µM) | 8 (≈ 13.9 µM) | 32 (≈ 55.6 µM) | 32 (≈ 55.6 µM)
OC(Cn1cncn1)(Cn1cncn1)c1ccc(F)cc1F [FLUCONAZOLE] |  | 256 (≈ 836 µM) |  |  |  | 1 (≈ 3.27 µM) |  |  | 16 (≈ 52.2 µM) | 8 (≈ 26.1 µM) |  | 4 (≈ 13.1 µM) |  |  | 
O=[N+]([O-])c1cn(CCCOCc2c(-c3ccccc3)nc3sc4ccccc4n23)cn1 | 4 (≈ 9.23 µM) | 16 (≈ 36.9 µM) | 2 (≈ 4.61 µM) | 256 (≈ 591 µM) | 4 (≈ 9.23 µM) | 2 (≈ 4.61 µM) | 8 (≈ 18.5 µM) | 4 (≈ 9.23 µM) | 64 (≈ 148 µM) | 128 (≈ 295 µM) | 8 (≈ 18.5 µM) | 32 (≈ 73.8 µM) | 8 (≈ 18.5 µM) | 32 (≈ 73.8 µM) | 2 (≈ 4.61 µM)
CCOc1ccc2c(c1)sc1nc(-c3ccccc3)c(COCCCBr)n12 | > 512 | 512 (≈ 1150 µM) | > 512 | > 512 | > 512 | > 512 | > 512 | > 512 | > 512 | > 512 | > 512 | > 512 | > 512 | 8 (≈ 18 µM) | 16 (≈ 35.9 µM)
Cc1ncc([N+](=O)[O-])n1CCCCCOCc1c(-c2ccccc2)nc2sc3ccccc3n12 | 8 (≈ 16.8 µM) | 16 (≈ 33.6 µM) | 16 (≈ 33.6 µM) | 64 (≈ 135 µM) | 16 (≈ 33.6 µM) | 8 (≈ 16.8 µM) | 8 (≈ 16.8 µM) | 4 (≈ 8.41 µM) | > 512 | 128 (≈ 269 µM) | 2 (≈ 4.21 µM) | 64 (≈ 135 µM) | 16 (≈ 33.6 µM) | 32 (≈ 67.3 µM) | 8 (≈ 16.8 µM)
CCOc1ccc2c(c1)sc1nc(-c3ccccc3)c(COCCCCCCCCCCn3cncn3)n12 | 32 (≈ 60.2 µM) | > 512 | 32 (≈ 60.2 µM) | 64 (≈ 120 µM) | 64 (≈ 120 µM) | > 512 | 64 (≈ 120 µM) | 8 (≈ 15 µM) | 128 (≈ 241 µM) | > 512 | 64 (≈ 120 µM) | > 512 | 64 (≈ 120 µM) | 128 (≈ 241 µM) | 8 (≈ 15 µM)
CCOc1ccc2c(c1)sc1nc(-c3ccccc3)c(COCCCCCn3cnc([N+](=O)[O-])c3)n12 | 128 (≈ 253 µM) | 256 (≈ 506 µM) | 256 (≈ 506 µM) | 512 (≈ 1010 µM) | 512 (≈ 1010 µM) | 128 (≈ 253 µM) | > 512 | 128 (≈ 253 µM) | 128 (≈ 253 µM) | 128 (≈ 253 µM) | > 512 | 256 (≈ 506 µM) | 16 (≈ 31.6 µM) | 256 (≈ 506 µM) | 512 (≈ 1010 µM)
CCOc1ccc2c(c1)sc1nc(-c3ccccc3)c(COCCCCCn3cncn3)n12 | > 512 | > 512 | > 512 | > 512 | > 512 | > 512 | > 512 | > 512 | > 512 | 256 (≈ 555 µM) | 128 (≈ 277 µM) | 256 (≈ 555 µM) | 256 (≈ 555 µM) | > 512 | > 512
CCOc1ccc2c(c1)sc1nc(-c3ccccc3)c(COCCCn3cncn3)n12 | > 512 | 64 (≈ 148 µM) | > 512 | > 512 | > 512 | 16 (≈ 36.9 µM) | > 512 | > 512 | 128 (≈ 295 µM) | 64 (≈ 148 µM) | 256 (≈ 590 µM) | 64 (≈ 148 µM) | > 512 | > 512 | > 512
CCn1cc(C(=O)O)c(=O)c2cc(F)c(N3CCNCC3)cc21 [NORFLOXACIN] | 1 (≈ 3.13 µM) |  | 4 (≈ 12.5 µM) | 2 (≈ 6.26 µM) | 8 (≈ 25.1 µM) |  | 8 (≈ 25.1 µM) | 2 (≈ 6.26 µM) |  |  | 1 (≈ 3.13 µM) |  | 16 (≈ 50.1 µM) | 4 (≈ 12.5 µM) | 16 (≈ 50.1 µM)
CCOc1ccc2c(c1)sc1nc(-c3ccccc3)c(COCCCCCn3c([N+](=O)[O-])cnc3C)n12 | 512 (≈ 985 µM) | 128 (≈ 246 µM) | 512 (≈ 985 µM) | 256 (≈ 493 µM) | > 512 | 32 (≈ 61.6 µM) |  | 128 (≈ 246 µM) | 128 (≈ 246 µM) | 256 (≈ 493 µM) | > 512 | 128 (≈ 246 µM) |  |  | 512 (≈ 985 µM)

From ChEMBL document CHEMBL4118281, “Azoalkyl ether imidazo[2,1-b]benzothiazoles as potentially antimicrobial agents with novel structural skeleton” (2018)
